This note sets out measurements from patent US12364692B2, “Topical naloxone compositions and methods for using the same” (Teikoku Pharma USA, Inc., priority 2020, dated 2025).

The conditions of series [1]: control and treatments other than hydrogen peroxide (5N hydrochloric acid, 5N sodium hydroxide 18 hours, 60° C. 2 weeks); peak areas relative to total area.
For series [2], the system named is mice (HOS:HR-1 hairless) with atopic dermatitis skin symptoms. Briefly: Scratching behavior in hairless mouse model of atopic dermatitis pruritis. In kind it is in vivo. Particulars: FIGS. 3-6; topical 0.1 ml/day, days 34, 41, 48, 55. The method, then: Atopic dermatitis skin symptoms were induced by providing a special feed diet 10 to mice (HOS:HR-1 hairless). All groups were treated with daily 0.1 ml/day of ointment over the entire back of each mouse for three consecutive weeks starting on Day 34. Mice were video recorded predose (baseline activity) for 30 minutes and observed for scratching for a period of one hour post application on days 34, 35, 38, 41, 45, 48, and 55. The topical naloxone active agent composition was allowed to dry 15 for one (1) hour prior to video recording of scratching behavior. Scratching behavior was monitored every 5 minutes for an hour where the number of scratching bouts includes one or more of the following actions: hind leg raised, scratching the back or lowering the leg to the floor. Cumulative duration of scratching behavior was also determined. Trans-epidermal water loss (TEWL) measured on Days 34, 48, 55 20 (Phase 2) and Days 33 and 55 (Phase 3) was also measured.

Regarding `C=CCN1CC[C@]23c4c5ccc(O)c4O[C@H]2C(=O)CC[C@@]3(O)[C@H]1C5` [naloxone drug substance, naloxone], the total related substances entry in series [1] is listed as “below 1%”. `C=CCN1CC[C@]23c4c5ccc(O)c4O[C@H]2C(=O)CC[C@@]3(O)[C@H]1C5` [naloxone free base, naloxone]: in series [2], the cumulative scratching duration entry is on record as “decreased” and the mean scratching bouts result is recorded as “decreased”.
